Results reported in patent US8304419B2, “Chemical compounds” (priority 2007, dated 2012).
pIC50: −log10 of the molar value. Counter-ions that a name gives are not always drawn. Like-named read-outs stand apart in the source and are kept apart here.

Tested on: HIV wild type (WTRVA)
Experiment: HeLa cell assay, wild type virus (WTRVA)
Type: cell-based, HIV-1
Set-up: scale not given here
Settings: Human immunodeficiency virus 1, HeLa
[1] = HeLa cell assay, read-out: IC50 against WTRVA
[2] = HeLa-CD4-LTR-β-gal cells, wild type virus, read-out: WTRVA activity level

SMILES: Cc1nc(Cl)c(C(=O)NCc2ccc(Cl)c(Oc3cc(Cl)cc(C#N)c3Cl)c2F)[nH]1 [Example 306, 4-chloro-N-({4-chloro-3-[(2,5-dichloro-3-cyanophenyl)oxy]-2-fluorophenyl}methyl)-2-methyl-1H-imidazole-5-carboxamide trifluoroacetate]
- pIC50 [1]: > 8.00

SMILES: COc1ccc2cc(C(=O)NCc3ccc(Cl)c(Oc4cc(Cl)cc(C#N)c4)c3)[nH]c2c1 [Example 7, N-({4-chloro-3-[(3-chloro-5-cyanophenyl)oxy]phenyl}methyl)-6-(methyloxy)-1H-indole-2-carboxamide]
- pIC50 [2]: 6.00 to 8.00

SMILES: N#Cc1cc(Cl)cc(Oc2c(Cl)ccc(CNC(=O)c3cc4cccc([N+](=O)[O-])c4[nH]3)c2F)c1 [Example 37, N-({4-chloro-3-[(3-chloro-5-cyanophenyl)oxy]-2-fluorophenyl}methyl)-7-nitro-1H-indole-2-carboxamide]
- pIC50 [2]: 6.00 to 8.00

SMILES: N#Cc1cc(Cl)cc(Oc2c(Br)ccc(CNC(=O)c3[nH]cnc3Br)c2F)c1 [Example 377, 4-bromo-N-({4-bromo-3-[(3-chloro-5-cyanophenyl)oxy]-2-fluorophenyl}methyl)-1H-imidazole-5-carboxamide]
- pIC50 [1]: > 8.00

SMILES: Cc1cc(C#N)cc(Oc2c(Cl)ccc(CNC(=O)c3[nH]cnc3Cl)c2F)c1 [Example 145, 4-chloro-N-({4-chloro-3-[(3-cyano-5-methylphenyl)oxy]-2-fluorophenyl}methyl)-1H-imidazole-5-carboxamide]
- pIC50 [1]: > 8.00

SMILES: CCc1cc(C#N)cc(Oc2c(Cl)ccc(CNC(=O)c3[nH]c(C)nc3Br)c2F)c1 [Example 149, 4-bromo-N-({4-chloro-3-[(3-cyano-5-ethylphenyl)oxy]-2-fluorophenyl}methyl)-2-methyl-1H-imidazole-5-carboxamide]
- pIC50 [1]: > 8.00

SMILES: CC(=O)Nc1ccc2cc(C(=O)NCc3ccc(Cl)c(Oc4cc(Cl)cc(C#N)c4)c3F)[nH]c2c1 [Example 122, 6-(acetylamino)-N-({4-chloro-3-[(3-chloro-5-cyanophenyl)oxy]-2-fluorophenyl}methyl)-1H-indole-2-carboxamide]
- pIC50 [2]: > 8.00

SMILES: COc1ccc2[nH]c(C(=O)NCc3ccc(Cl)c(Oc4cc(Cl)cc(C#N)c4)c3F)cc2c1Br [Example 73, 4-bromo-N-({4-chloro-3-[(3-chloro-5-cyanophenyl)oxy]-2-fluorophenyl}methyl)-5-(methyloxy)-1H-indole-2-carboxamide trifluoroacetate]
- pIC50 [2]: 6.00 to 8.00

SMILES: N#Cc1cc(Cl)cc(Oc2c(Cl)ccc(CNC(=O)c3cc4cc(F)ccc4[nH]3)c2F)c1 [Example 41, N-({4-chloro-3-[(3-chloro-5-cyanophenyl)oxy]-2-fluorophenyl}methyl)-5-fluoro-1H-indole-2-carboxamide]
- pIC50 [2]: 6.00 to 8.00

SMILES: CC(=O)Nc1ccc2[nH]c(C(=O)NCc3ccc(Cl)c(Oc4cc(Cl)cc(C#N)c4)c3F)cc2c1 [Example 121, 5-(acetylamino)-N-({4-chloro-3-[(3-chloro-5-cyanophenyl)oxy]-2-fluorophenyl}methyl)-1H-indole-2-carboxamide]
- pIC50 [2]: > 8.00

SMILES: N#Cc1cc(Cl)cc(Oc2c(Cl)ccc(CNC(=O)c3[nH]c4cc(OCCO)ccc4c3Br)c2F)c1 [Example 141, 3-Bromo-N-({4-chloro-3-[(3-chloro-5-cyanophenyl)oxy]-2-fluorophenyl}methyl)-6-[(2-hydroxyethyl)oxy]-1H-indole-2-carboxamide]
- pIC50 [2]: > 8.00

SMILES: C=C(C)c1cc(C#N)cc(Oc2c(Cl)ccc(CNC(=O)c3[nH]cnc3Cl)c2F)c1 [Example 158, 4-chloro-N-[(4-chloro-3-{[3-cyano-5-(1-methylethenyl)phenyl]oxy}-2-fluorophenyl)methyl]-1H-imidazole-5-carboxamide]
- pIC50 [1]: > 8.00

SMILES: N#Cc1cc(Cl)cc(Oc2c(Cl)ccc(CNC(=O)c3cc4cc(OCCN5CCOCC5)ccc4[nH]3)c2F)c1 [Example 103, N-({4-chloro-3-[(3-chloro-5-cyanophenyl)oxy]-2-fluorophenyl}methyl)-5-{[2-(4-morpholinyl)ethyl]oxy}-1H-indole-2-carboxamide]
- pIC50 [2]: > 8.00
